# According to patent US20050245452A1, “Pharmaceutical use of novispirins” (Novozymes A/S, priority 2004, published 2005):
# Columns and labels:
# [1] = test system: Staphylococcus aureus (ATCC 25923); test: Staphylococcus aureus wound infection in pigs (wound chambers, 4 hour time course); assay type: in vivo, Göttinger minipigs; conditions: 1 ml applied
# Method: The bacterial strain, Staphylococcus aureus, used in the study was ATCC 25923. The amino acid sequence of Novispirin G10 is shown in SEQ ID NO: 16.
# Novispirin G10 was diluted in 0.01% acetic acid containing 0.1% BSA with a final concentration of 1 mg (substrate)/ml (solution); 100 micrograms/ml; 10 micrograms/ml and 1 microgram/ml. The carrier control was 0.01% acetic acid containing 0.1% BSA. As a positive control was used Synthetic Protegrin 1 (Charité, Institut f. Biochemie d. Humboldt Universität Berlin) diluted in 0.01% acetic acid containing 0.1% BSA with a final concentration of 100 micrograms/ml.
# The chambers are made of one piece of titanium, have a screw top cover (also made of titanium) and were built in teamwork with Cranio Construct Bochum. The chambers have a height of 14 mm, an inner diameter of 25 mm and an outer diameter of 32 mm without baseplate (with baseplate: 50 mm).
# After providing permission to conduct experiments with vertebrates in compliance with German animal protection laws, Göttinger minipigs (Fa. Ellegaard, Dalmose, Denmark; female, 6 months old, 25-30 kg weight) were chosen to implant the chambers on. The pigs were kept at least 2 weeks in the stable, fed a standard porcine diet and housed at 20° C. to 30° C. in an atmosphere of approximately 65% humidity with a light cycle of 12 hours on and 12 hours off. The animals used for this study appeared, during the experiments, clinically healthy—rectal temperature and body weight remained normal over the observed period.
# Before wounding the skin was surgically prepared, washed with soap and disinfected with Octenisept (S&M, Norderstedt, Germany) for five minutes. Twelve BO-Chambers were implanted on the pigs back and flank between the base of the scapula and the iliac crest. The wounds were spaced a minimum of 5 cm apart and were created in four rows parallel to the columna vertebralis, two rows on each side of the columna vertebrtalis. The exact size and shape of the wounds were ensured by a special custom-made “round-scalpel” (also built in teamwork with Cranio Construct Bochum), which has a diameter of 33 mm. Epidermal, dermal subcutaneous tissues were removed, possible bleedings stanched by bipolar diathermy. The chambers were placed with an additionally secant v-incision at positions 6 respectively 12 o'clock on the musculus thoracicus longus fascia and the muscle fascia of the external ripcage muscles. The incisions were sutured with 2/0 Monocryl followed by the closure of the chambers. Povidone-iodine salve (Betaisodonna-salve, Mundipharma, Austria) was smothered on the wound edges. The chambers were dressed with paraffin gauze (Jelonet, Smith & Nephew, Lohfelden, Germany) and sterile compresses. Dressings were changed every second day under sedation (as described above).
# Bacterial Background of each chamber was measured every second day, to detect potential contamination. Only one contaminated chamber was detected. Seven days post operation ten chambers were inoculated with bacteria.
# For bacteria progeny Staphylococcus aureus (ATCC 25923) was plated on LB-Agar plate and incubated at 37° C. for 18 hours. One colony was picked and transfered into 3 ml LB-Medium for over night culture at 37° C. at 300 rpm. Over night culture was diluted in 50 ml fresh LB-Medium and incubated for 2.5 hours at 37° C. at 200 rpm.
# Bacteria were pelleted, 4000 rpm, 5 min, Mergafuge 1.0 R (Heraeus, Hanau, Germany), and resuspended in PBS. Amount of containg bacteria was detremined by OD600 nm-measurement and calculated as follows: Colony forming Unit/ml=OD600 nm×2.5×10^8 (bacteria)
# To inoculate one chamber 5×10^8 were used.
# The establishment of the infection was proven by the measurement of bacterial counts per chamber. All inoculated chambers were infected after two days. Chamber No. 2 keeps bacteria free.
# At day four after infection the antimicrobial effect of the testing substrate was measured in a time course of 4 hours in duration. […]
# [2] = test system: Pseudomonas aeruginosa CF86/57388A (mucoid); test: Pseudomonas aeruginosa lung infection in rats: lung pathology and lung bacteriology; assay type: in vivo, Lewis rat; conditions: for Lung bacteriology: Percentage of animals that cleared the bacteria in the lungs / Lung pathological scores: animals with Score 1 + 2 / Lung pathological scores: animals with Score 3 / Lung pathological scores: animals with Score 4: 0.1 mg/ml, 0.1 ml/rat intratracheally at hour 0 and 3
# Method: The bacterial strain, Pseudomonas aeruginosa, used in the study is CF86/57388A (1997), which is isolated from a cystic fibrosis patient and keeps stable mucoid phenotype. The rat strain used in the study is Lewis rat (7 weeks old, female) imported from Germany. Both bacterial challenge and drug administration were done intratracheally. All rats were challenged with mucoid P. aeruginosa in alginate. The concentration of the bacteria was 1×10^10 CFU/ml and each rat received 0.1 ml (1×10^9 CFU) bacteria. Control group received placebo (sterile saline, 0.1 ml/rat) twice at hour 0 and 3, and the Novispirin G10 group received the peptide (0.1 mg/ml, 0.1 ml/rat) twice at hour 0 and 3. The animals were sacrificed on day 3, 5, 7 and 10 after challenge for parameters evaluation.
substance,measurement,setting,value
Novispirin G10: novispirin antimicrobial polypeptide; amino acid sequence shown in SEQ ID NO: 16 (KNLRRIIRKGIHIIKKYG; Synthetic antimicrobial peptide),Mean CFU per ml sample volume (chamber fluid),"[1]; 1 mg/ml, 0 hours",10700000 CFU/ml
same,Mean CFU per ml sample volume (chamber fluid),"[1]; 1 mg/ml, 1 hour",2817 CFU/ml
same,Mean CFU per ml sample volume (chamber fluid),"[1]; 1 mg/ml, 2 hours",2100 CFU/ml
same,Mean CFU per ml sample volume (chamber fluid),"[1]; 1 mg/ml, 3 hours",833 CFU/ml
same,Mean CFU per ml sample volume (chamber fluid),"[1]; 1 mg/ml, 4 hours",1233 CFU/ml
same,Mean CFU per ml sample volume (chamber fluid),"[1]; 1 microgram/ml, 0 hours",9060000 CFU/ml
same,Mean CFU per ml sample volume (chamber fluid),"[1]; 1 microgram/ml, 1 hour",2508333 CFU/ml
same,Mean CFU per ml sample volume (chamber fluid),"[1]; 1 microgram/ml, 2 hours",159067 CFU/ml
same,Mean CFU per ml sample volume (chamber fluid),"[1]; 1 microgram/ml, 3 hours",33858 CFU/ml
same,Mean CFU per ml sample volume (chamber fluid),"[1]; 1 microgram/ml, 4 hours",148333 CFU/ml
same,Mean CFU per ml sample volume (chamber fluid),"[1]; 10 micrograms/ml, 0 hours",5065000 CFU/ml
same,Mean CFU per ml sample volume (chamber fluid),"[1]; 10 micrograms/ml, 1 hour",440500 CFU/ml
same,Mean CFU per ml sample volume (chamber fluid),"[1]; 10 micrograms/ml, 2 hours",304500 CFU/ml
same,Mean CFU per ml sample volume (chamber fluid),"[1]; 10 micrograms/ml, 3 hours",40910 CFU/ml
same,Mean CFU per ml sample volume (chamber fluid),"[1]; 10 micrograms/ml, 4 hours",1563188 CFU/ml
same,Mean CFU per ml sample volume (chamber fluid),"[1]; 100 micrograms/ml, 0 hours",1330000 CFU/ml
same,Mean CFU per ml sample volume (chamber fluid),"[1]; 100 micrograms/ml, 1 hour",790033 CFU/ml
same,Mean CFU per ml sample volume (chamber fluid),"[1]; 100 micrograms/ml, 2 hours",195125 CFU/ml
same,Mean CFU per ml sample volume (chamber fluid),"[1]; 100 micrograms/ml, 3 hours",142765 CFU/ml
same,Mean CFU per ml sample volume (chamber fluid),"[1]; 100 micrograms/ml, 4 hours",8467 CFU/ml
same,Lung bacteriology: Percentage of animals that cleared the bacteria in the lungs,[2]; Day 3,(30%)
same,Lung bacteriology: Percentage of animals that cleared the bacteria in the lungs,[2]; Day 5,(50%)
same,Lung bacteriology: Percentage of animals that cleared the bacteria in the lungs,[2]; Day 7,(90%)
same,Lung bacteriology: Percentage of animals that cleared the bacteria in the lungs,[2]; Day 10,(100%)
same,Gross lung pathology compared with the placebo control group,"[2]; all 4 time points (day 3, 5, 7, 10)",significantly milder lung pathology
same,Histopathology of lungs,[2]; day 3,lung consolidation with chronic inflammation is the dominant change
same,Lung bacteriology compared to the control group,[2]; day 3,175 times lower
same,Severity of lung scoring versus control group,[2]; day 3,no significant difference in the severity of lung scoring
same,Gross lung pathology: lung consolidation area,"[2]; day 3, versus placebo control",the consolidation area was much smaller
same,Lung pathological scores: animals with Score 1 + 2,[2]; day 3 after challenge,0/14 = 0%
same,Lung pathological scores: animals with Score 3,[2]; day 3 after challenge,3/14 = 21.4%
same,Lung pathological scores: animals with Score 4,[2]; day 3 after challenge,11/14 = 78.6%
same,Histopathology of lungs,[2]; day 5,milder chronic inflammation
same,Lung pathological scores: animals with Score 1 + 2,[2]; day 5 after challenge,0/14 = 0%
same,Lung pathological scores: animals with Score 3,[2]; day 5 after challenge,10/14 = 71.4%
same,Lung pathological scores: animals with Score 4,[2]; day 5 after challenge,0/14 = 0%
same,Lung pathological scores: animals with Score 1 + 2,[2]; day 7 after challenge,6/11 = 54.5%
same,Lung pathological scores: animals with Score 3,[2]; day 7 after challenge,5/11 = 45.5%
same,Lung pathological scores: animals with Score 4,[2]; day 7 after challenge,0/11 = 0%
same,Histopathology of lungs,[2]; day 10,the lung pathology was tended to be cured
same,Lung pathological scores: animals with Score 1 + 2,[2]; day 10 after challenge,11/14 = 78.6%
same,Lung pathological scores: animals with Score 3,[2]; day 10 after challenge,3/14 = 21.4%
same,Lung pathological scores: animals with Score 4,[2]; day 10 after challenge,0/14 = 0%
same,Gross lung pathology: dominant finding,"[2]; days 5, 7 and 10","small lung atelectasis, no abscess and adhesion found"
same,Severity of lung scoring versus control group,[2]; from day 5 on,significantly milder lung pathology
same,Histopathology of lungs in comparison with the placebo control group,"[2]; overall, intratracheal treatment",milder lung inflammation and recover remarkably faster
